Data as given in PubChem BioAssay AID1963825 (Molecular Pharmacology Branch, DTP, NCI, 2024).

assay: Anticancer human tumor 997537-175-T-J1-PDC patient-derived colon adenocarcinoma cell line growth inhibition [POLQ]; details: 997537-175-T-J1-PDC complex spheroid viability, combination with POLQ inhibitors; second compound 0.316 µM; first compound 0.316 µM; hits give low values
How it was run: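 Three-cell-type spheroids modelling solid tumor plus stroma served as the readout system; POL inhibitors were tested individually and in combination, concentration ranges set by clinical Cmax where known.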
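Further: luminescence signal used as a surrogate for viable cells; spheroids exposed to drugs for seven days before readout.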

Question: With `COc1cccc(OCCCN)c1-c1cc(Nc2cnc(C#N)cn2)n[nH]1` + Cc1cccc(N(C)C(=O)C2C(O)CCN2c2nc(C)cc(C(F)(F)F)c2C#N)c1 as the molecule, how does the viability, T/C read?
Answer: 48.2%

Question: With `C=CC(=O)N1CCN(c2nc(=O)n(-c3c(C)ccnc3C(C)C)c3nc(-c4c(O)cccc4F)c(F)cc23)C(C)C1` (configuration not stated) + Cc1cccc(N(C)C(=O)C2C(O)CCN2c2nc(C)cc(C(F)(F)F)c2C#N)c1 as the molecule, how does the viability, T/C read?
Answer: 108%

same assay, conditions: 997537-175-T-J1-PDC complex spheroid viability, combination with POLQ inhibitors; second compound 0.316 µM; first compound 1 µM; hits give low values

Question: For `O=c1[nH]cc(F)c(=O)[nH]1` + Cc1cccc(N(C)C(=O)C2C(O)CCN2c2nc(C)cc(C(F)(F)F)c2C#N)c1, which viability, T/C is on record?
Answer: 98.4%

Question: For `CNCc1ccc(-c2[nH]c3cc(F)cc4c3c2CCNC4=O)cc1` + COC1C(OC(N)=O)C(O)C(Oc2ccc3c(O)c(NC(=O)c4ccc(O)c(CC=C(C)C)c4)c(=O)oc3c2C)OC1(C)C, which viability, T/C is on record?
Answer: 87%

Question: For `COc1cccc(OCCCN)c1-c1cc(Nc2cnc(C#N)cn2)n[nH]1` + Cc1cccc(N(C)C(=O)C2C(O)CCN2c2nc(C)cc(C(F)(F)F)c2C#N)c1, which viability, T/C is on record?
Answer: 20%

Question: Which viability, T/C does the source give for `C=CC(=O)N1CCN(c2nc(=O)n(-c3c(C)ccnc3C(C)C)c3nc(-c4c(O)cccc4F)c(F)cc23)C(C)C1` (configuration not stated) + Cc1cccc(N(C)C(=O)C2C(O)CCN2c2nc(C)cc(C(F)(F)F)c2C#N)c1 here?
Answer: 99.5%

same assay, conditions: 997537-175-T-J1-PDC complex spheroid viability, combination with POLQ inhibitors; second compound 0.316 µM; first compound 3.16 µM; hits give low values

Question: Which viability, T/C does the source give for `O=c1[nH]cc(F)c(=O)[nH]1` + Cc1cccc(N(C)C(=O)C2C(O)CCN2c2nc(C)cc(C(F)(F)F)c2C#N)c1 here?
Answer: 94.9%

Question: Which viability, T/C does the source give for `CNCc1ccc(-c2[nH]c3cc(F)cc4c3c2CCNC4=O)cc1` + COC1C(OC(N)=O)C(O)C(Oc2ccc3c(O)c(NC(=O)c4ccc(O)c(CC=C(C)C)c4)c(=O)oc3c2C)OC1(C)C here?
Answer: 95.5%

Question: With `C=CC(=O)N1CCN(c2nc(=O)n(-c3c(C)ccnc3C(C)C)c3nc(-c4c(O)cccc4F)c(F)cc23)C(C)C1` (configuration not stated) + Cc1cccc(N(C)C(=O)C2C(O)CCN2c2nc(C)cc(C(F)(F)F)c2C#N)c1 as the molecule, how does the viability, T/C read?
Answer: 102%

same assay, conditions: 997537-175-T-J1-PDC complex spheroid viability, combination with POLQ inhibitors; second compound 0.316 µM; first compound 10 µM; hits give low values

Question: With `O=c1[nH]cc(F)c(=O)[nH]1` + Cc1cccc(N(C)C(=O)C2C(O)CCN2c2nc(C)cc(C(F)(F)F)c2C#N)c1 as the molecule, how does the viability, T/C read?
Answer: 83.3%

Question: Which viability, T/C does the source give for `CNCc1ccc(-c2[nH]c3cc(F)cc4c3c2CCNC4=O)cc1` + COC1C(OC(N)=O)C(O)C(Oc2ccc3c(O)c(NC(=O)c4ccc(O)c(CC=C(C)C)c4)c(=O)oc3c2C)OC1(C)C here?
Answer: 78.3%

Question: With `C=CC(=O)N1CCN(c2nc(=O)n(-c3c(C)ccnc3C(C)C)c3nc(-c4c(O)cccc4F)c(F)cc23)C(C)C1` (configuration not stated) + Cc1cccc(N(C)C(=O)C2C(O)CCN2c2nc(C)cc(C(F)(F)F)c2C#N)c1 as the molecule, how does the viability, T/C read?
Answer: 104%

same assay, conditions: 997537-175-T-J1-PDC complex spheroid viability, combination with POLQ inhibitors; second compound 1 µM; first compound 0.00316 µM; hits give low values

Question: For `COc1cccc(OCCCN)c1-c1cc(Nc2cnc(C#N)cn2)n[nH]1` + Cc1cccc(N(C)C(=O)C2C(O)CCN2c2nc(C)cc(C(F)(F)F)c2C#N)c1, which viability, T/C is on record?
Answer: 101%

same assay, conditions: 997537-175-T-J1-PDC complex spheroid viability, combination with POLQ inhibitors; second compound 1 µM; first compound 0.01 µM; hits give low values

Question: Which viability, T/C does the source give for `COc1cccc(OCCCN)c1-c1cc(Nc2cnc(C#N)cn2)n[nH]1` + Cc1cccc(N(C)C(=O)C2C(O)CCN2c2nc(C)cc(C(F)(F)F)c2C#N)c1 here?
Answer: 79.1%

same assay, conditions: 997537-175-T-J1-PDC complex spheroid viability, combination with POLQ inhibitors; second compound 1 µM; first compound 0.0316 µM; hits give low values

Question: For `O=c1[nH]cc(F)c(=O)[nH]1` + Cc1cccc(N(C)C(=O)C2C(O)CCN2c2nc(C)cc(C(F)(F)F)c2C#N)c1, which viability, T/C is on record?
Answer: 104%

Question: Which viability, T/C does the source give for `CNCc1ccc(-c2[nH]c3cc(F)cc4c3c2CCNC4=O)cc1` + COC1C(OC(N)=O)C(O)C(Oc2ccc3c(O)c(NC(=O)c4ccc(O)c(CC=C(C)C)c4)c(=O)oc3c2C)OC1(C)C here?
Answer: 94.7%

Question: With `COc1cccc(OCCCN)c1-c1cc(Nc2cnc(C#N)cn2)n[nH]1` + Cc1cccc(N(C)C(=O)C2C(O)CCN2c2nc(C)cc(C(F)(F)F)c2C#N)c1 as the molecule, how does the viability, T/C read?
Answer: 59.6%

Question: Which viability, T/C does the source give for `C=CC(=O)N1CCN(c2nc(=O)n(-c3c(C)ccnc3C(C)C)c3nc(-c4c(O)cccc4F)c(F)cc23)C(C)C1` (configuration not stated) + Cc1cccc(N(C)C(=O)C2C(O)CCN2c2nc(C)cc(C(F)(F)F)c2C#N)c1 here?
Answer: 105%

same assay, conditions: 997537-175-T-J1-PDC complex spheroid viability, combination with POLQ inhibitors; second compound 1 µM; first compound 0.1 µM; hits give low values

Question: With `O=c1[nH]cc(F)c(=O)[nH]1` + Cc1cccc(N(C)C(=O)C2C(O)CCN2c2nc(C)cc(C(F)(F)F)c2C#N)c1 as the molecule, how does the viability, T/C read?
Answer: 82.8%

Question: With `CNCc1ccc(-c2[nH]c3cc(F)cc4c3c2CCNC4=O)cc1` + COC1C(OC(N)=O)C(O)C(Oc2ccc3c(O)c(NC(=O)c4ccc(O)c(CC=C(C)C)c4)c(=O)oc3c2C)OC1(C)C as the molecule, how does the viability, T/C read?
Answer: 101%

Question: Which viability, T/C does the source give for `COc1cccc(OCCCN)c1-c1cc(Nc2cnc(C#N)cn2)n[nH]1` + Cc1cccc(N(C)C(=O)C2C(O)CCN2c2nc(C)cc(C(F)(F)F)c2C#N)c1 here?
Answer: 25.9%

Question: With `C=CC(=O)N1CCN(c2nc(=O)n(-c3c(C)ccnc3C(C)C)c3nc(-c4c(O)cccc4F)c(F)cc23)C(C)C1` (configuration not stated) + Cc1cccc(N(C)C(=O)C2C(O)CCN2c2nc(C)cc(C(F)(F)F)c2C#N)c1 as the molecule, how does the viability, T/C read?
Answer: 108%

same assay, conditions: 997537-175-T-J1-PDC complex spheroid viability, combination with POLQ inhibitors; second compound 1 µM; first compound 0.316 µM; hits give low values

Question: With `O=c1[nH]cc(F)c(=O)[nH]1` + Cc1cccc(N(C)C(=O)C2C(O)CCN2c2nc(C)cc(C(F)(F)F)c2C#N)c1 as the molecule, how does the viability, T/C read?
Answer: 94.7%

Question: For `CNCc1ccc(-c2[nH]c3cc(F)cc4c3c2CCNC4=O)cc1` + COC1C(OC(N)=O)C(O)C(Oc2ccc3c(O)c(NC(=O)c4ccc(O)c(CC=C(C)C)c4)c(=O)oc3c2C)OC1(C)C, which viability, T/C is on record?
Answer: 101%

Question: Which viability, T/C does the source give for `COc1cccc(OCCCN)c1-c1cc(Nc2cnc(C#N)cn2)n[nH]1` + Cc1cccc(N(C)C(=O)C2C(O)CCN2c2nc(C)cc(C(F)(F)F)c2C#N)c1 here?
Answer: 29.5%

Question: For `C=CC(=O)N1CCN(c2nc(=O)n(-c3c(C)ccnc3C(C)C)c3nc(-c4c(O)cccc4F)c(F)cc23)C(C)C1` (configuration not stated) + Cc1cccc(N(C)C(=O)C2C(O)CCN2c2nc(C)cc(C(F)(F)F)c2C#N)c1, which viability, T/C is on record?
Answer: 111%

same assay, conditions: 997537-175-T-J1-PDC complex spheroid viability, combination with POLQ inhibitors; second compound 1 µM; first compound 1 µM; hits give low values

Question: With `O=c1[nH]cc(F)c(=O)[nH]1` + Cc1cccc(N(C)C(=O)C2C(O)CCN2c2nc(C)cc(C(F)(F)F)c2C#N)c1 as the molecule, how does the viability, T/C read?
Answer: 87.5%

Question: Which viability, T/C does the source give for `CNCc1ccc(-c2[nH]c3cc(F)cc4c3c2CCNC4=O)cc1` + COC1C(OC(N)=O)C(O)C(Oc2ccc3c(O)c(NC(=O)c4ccc(O)c(CC=C(C)C)c4)c(=O)oc3c2C)OC1(C)C here?
Answer: 92.8%

Question: With `COc1cccc(OCCCN)c1-c1cc(Nc2cnc(C#N)cn2)n[nH]1` + Cc1cccc(N(C)C(=O)C2C(O)CCN2c2nc(C)cc(C(F)(F)F)c2C#N)c1 as the molecule, how does the viability, T/C read?
Answer: 27.4%

Question: With `C=CC(=O)N1CCN(c2nc(=O)n(-c3c(C)ccnc3C(C)C)c3nc(-c4c(O)cccc4F)c(F)cc23)C(C)C1` (configuration not stated) + Cc1cccc(N(C)C(=O)C2C(O)CCN2c2nc(C)cc(C(F)(F)F)c2C#N)c1 as the molecule, how does the viability, T/C read?
Answer: 108%

same assay, conditions: 997537-175-T-J1-PDC complex spheroid viability, combination with POLQ inhibitors; second compound 1 µM; first compound 3.16 µM; hits give low values

Question: For `O=c1[nH]cc(F)c(=O)[nH]1` + Cc1cccc(N(C)C(=O)C2C(O)CCN2c2nc(C)cc(C(F)(F)F)c2C#N)c1, which viability, T/C is on record?
Answer: 87.3%

Question: For `CNCc1ccc(-c2[nH]c3cc(F)cc4c3c2CCNC4=O)cc1` + COC1C(OC(N)=O)C(O)C(Oc2ccc3c(O)c(NC(=O)c4ccc(O)c(CC=C(C)C)c4)c(=O)oc3c2C)OC1(C)C, which viability, T/C is on record?
Answer: 99.3%

Question: With `C=CC(=O)N1CCN(c2nc(=O)n(-c3c(C)ccnc3C(C)C)c3nc(-c4c(O)cccc4F)c(F)cc23)C(C)C1` (configuration not stated) + Cc1cccc(N(C)C(=O)C2C(O)CCN2c2nc(C)cc(C(F)(F)F)c2C#N)c1 as the molecule, how does the viability, T/C read?
Answer: 105%

same assay, conditions: 997537-175-T-J1-PDC complex spheroid viability, combination with POLQ inhibitors; second compound 1 µM; first compound 10 µM; hits give low values

Question: With `O=c1[nH]cc(F)c(=O)[nH]1` + Cc1cccc(N(C)C(=O)C2C(O)CCN2c2nc(C)cc(C(F)(F)F)c2C#N)c1 as the molecule, how does the viability, T/C read?
Answer: 91.5%

Question: For `CNCc1ccc(-c2[nH]c3cc(F)cc4c3c2CCNC4=O)cc1` + COC1C(OC(N)=O)C(O)C(Oc2ccc3c(O)c(NC(=O)c4ccc(O)c(CC=C(C)C)c4)c(=O)oc3c2C)OC1(C)C, which viability, T/C is on record?
Answer: 84.1%

Question: For `C=CC(=O)N1CCN(c2nc(=O)n(-c3c(C)ccnc3C(C)C)c3nc(-c4c(O)cccc4F)c(F)cc23)C(C)C1` (configuration not stated) + Cc1cccc(N(C)C(=O)C2C(O)CCN2c2nc(C)cc(C(F)(F)F)c2C#N)c1, which viability, T/C is on record?
Answer: 82.2%

same assay, conditions: 997537-175-T-J1-PDC complex spheroid viability, combination with POLQ inhibitors; second compound 3.16 µM; first compound 0.00316 µM; hits give low values

Question: With `COc1cccc(OCCCN)c1-c1cc(Nc2cnc(C#N)cn2)n[nH]1` + Cc1cccc(N(C)C(=O)C2C(O)CCN2c2nc(C)cc(C(F)(F)F)c2C#N)c1 as the molecule, how does the viability, T/C read?
Answer: 86.6%

same assay, conditions: 997537-175-T-J1-PDC complex spheroid viability, combination with POLQ inhibitors; second compound 3.16 µM; first compound 0.01 µM; hits give low values

Question: For `COc1cccc(OCCCN)c1-c1cc(Nc2cnc(C#N)cn2)n[nH]1` + Cc1cccc(N(C)C(=O)C2C(O)CCN2c2nc(C)cc(C(F)(F)F)c2C#N)c1, which viability, T/C is on record?
Answer: 85.4%

same assay, conditions: 997537-175-T-J1-PDC complex spheroid viability, combination with POLQ inhibitors; second compound 3.16 µM; first compound 0.0316 µM; hits give low values

Question: For `O=c1[nH]cc(F)c(=O)[nH]1` + Cc1cccc(N(C)C(=O)C2C(O)CCN2c2nc(C)cc(C(F)(F)F)c2C#N)c1, which viability, T/C is on record?
Answer: 95%

Question: Which viability, T/C does the source give for `CNCc1ccc(-c2[nH]c3cc(F)cc4c3c2CCNC4=O)cc1` + COC1C(OC(N)=O)C(O)C(Oc2ccc3c(O)c(NC(=O)c4ccc(O)c(CC=C(C)C)c4)c(=O)oc3c2C)OC1(C)C here?
Answer: 97.8%

Question: With `COc1cccc(OCCCN)c1-c1cc(Nc2cnc(C#N)cn2)n[nH]1` + Cc1cccc(N(C)C(=O)C2C(O)CCN2c2nc(C)cc(C(F)(F)F)c2C#N)c1 as the molecule, how does the viability, T/C read?
Answer: 38%

Question: For `C=CC(=O)N1CCN(c2nc(=O)n(-c3c(C)ccnc3C(C)C)c3nc(-c4c(O)cccc4F)c(F)cc23)C(C)C1` (configuration not stated) + Cc1cccc(N(C)C(=O)C2C(O)CCN2c2nc(C)cc(C(F)(F)F)c2C#N)c1, which viability, T/C is on record?
Answer: 103%
